Results as given in patent publication US12280046B2, “Melanocortin subtype-2 receptor (MC2R) antagonist for the treatment of disease” (Crinetics Pharmaceuticals, Inc., priority 2021, dated 2025).

Key:
[1] = system: basal and ACTH-stimulated cortisol; assay: Phase 1 MAD study, basal and ACTH-stimulated cortisol; format: in vivo, human
Text: This Phase 1, first-in-human, double-blind, randomized, placebo-controlled study will evaluate the safety of Compound 1 in healthy volunteers as well as the relationship between exposure and pharmacodynamic (PD) parameters, including ACTH-stimulated and endogenous cortisol secretion measured in blood, saliva, and urine. Results will be used to inform endpoints and other parameters in future later studies in patients with Cushing's disease (CD) or other diseases of excess adrenocorticotropic hormone (ACTH), including Congenital Adrenal Hyperplasia (CAH) and Ectopic ACTH Syndrome (EAS).
MAD/Part 2: multiple ascending dose, randomized, placebo-controlled, double-blind; 2 planned and up to 4 total cohorts (n=36). In each cohort, 6 subjects will receive Compound 1, 3 subjects will receive the placebo. The doses will not exceed the doses in the SAD.
Starting on Day −1 until EOS (or ET), fasting pre-dose blood samples are collected <15 minutes prior to dosing for measurement of serum cortisol, A4, 17-OHP, aldosterone, ACTH(1 39), renin, and DHEAS. […] Cosyntropin is then administered (250 mcg in the “high dose” test; 1 mcg in the “low dose” test) to define time 0 of the ACTH-stimulation test. […]
At Screening and on Days 2, 3, 5, 6, 7, 8, 10, 11, and 12, fasting blood samples are collected for measurement of serum cortisol at 4 hours (15 minutes) post-dose (˜1200 hr). On Days in which the ACTH-stimulation test is conducted, this collection will be 120 min post-cosyntropin administration such that post-cosyntropin cortisol collection times are Time 30 minutes (5 minutes), Time 60 minutes (5 minutes), and Time 120 minutes (5 minutes).
A 24-hour blood biomarker profile is measured starting Day −1 until Day 1 pre-dose, Day 1 post-dose until Day 2 pre-dose, Day 4 post-dose until Day 5 pre-dose, and Day 9 post-dose until Day 10 pre-dose.

[2] = system: 87 targets including G-protein coupled receptors, nuclear receptors, other cell surface receptors, ion channels, enzymes, and transporters; assay: Eurofins Panlabs SafetyScreen off-target selectivity panel; details: single concentration 10 μM
Experimental: (§1) Compound 1 was tested at Eurofins Panlabs Discovery Services Taiwan, Ltd. for evaluation in their SafetyScreen™ panel of assays. This included selectivity assays at 87 targets including G-protein coupled receptors, nuclear receptors, other cell surface receptors, ion channels, enzymes, and transporters.

[3] = target: T1, MCSR (Homo sapiens, UniProt P33032); assay: Commercially available MCSR membrane binding assay; details: greater than highest concentration tested
T1 construct: purchased
Experimental: (§2) The selectivity over other human MCR subtypes was evaluated using commercially available MC1R, MC3R, MC4R, and MCSR membrane binding assays. The half maximal inhibitory concentration in the binding assays (IC50) were determined to be greater than the highest concentration tested, or >10,000 nM, >1000 nM, >10,000 nM and >1000 nM for MC1R, MC3R, MC4R and MCSR, respectively. Compound 1 is >2900-fold selective for MC2R versus the other human MCRs.

[4] = system: serotonin 5-hydroxytryptamine 1B receptor (5-HT1B); assay: SafetyScreen panel: 5-HT1B; format: binding; details: 10 μM
Experimental: as §1

[5] = system: ACTH-stimulated corticosterone; assay: Single oral dose with repeated ACTH(1-24) challenges in rats; format: in vivo, rat; details: for suppression of ACTH-stimulated corticosterone: vs vehicle
Experimental: The ability of a single dose of Compound 1 to suppress corticosterone after repeated ACTH(1-24) (1 μg/kg) challenges was evaluated to determine the reproducibility of the ACTH-stimulated corticosterone response and the amount of time required to restore the corticosterone response to vehicle levels.
Compound 1 suppressed ACTH-stimulated corticosterone at 1 hour (44% and 88% with 3 and 30 mg/kg, respectively) and 4 hours (36% and 84% with 3 and 30 mg/kg, respectively) post-oral administration compared to vehicle treatment.

[6] = target: T2, human MC2R (Homo sapiens, UniProt Q01718); assay: Inhibition of ACTH binding: radioactive competition binding assay, hMC2R membranes
T2 construct: host or cells: CellSensor CRE-bla CHO-K1
Experimental: Crude membrane fractions are prepared from CellSensor CRE-bla CHO-K1 cells stably expressing functional hMC2 receptor (ThermoFisher #K1483). The cells are cultured to 85-100% confluency in growth media [GlutaMax DMEM (Gibco #10569-010) supplemented with 10% dialyzed fetal bovine serum (Gemini Bio-Products #100-108), 0.1 mM non-essential amino acids (Gibco #11140-050), 100 U/mL penicillin; 100 μg/mL streptomycin; 2 mM L-glutamine (Gemini Bio-Products #400-110), 5 μg/mL blasticidin (GoldBio #B-800-100), 100 μg/mL zeocin (Invitogen #R25005) and 600 μg/mL hygromycin B (GoldBio #31282-04-9)]. Cells were collected and washed in Dulbecco's phosphate buffered saline (Corning #21-031-CV). […]
The inhibition of binding to the human MC2R receptor was measured in a radioactive competition binding assay using the radiolabeled [^125I]-TYR^23]-ACTH (1-39) ligand (PerkinElmer #NEX083, custom synthesis) as the probe ligand for the receptor. […] The radioactive signal was detected using a MicroBetaTriLux 1450 LSC (PerkinElmer). […]
The selectivity over other human MCR subtypes was evaluated using commercially available MC1R, MC3R, MC4R, and MCSR membrane binding assays. […]

[7] = target: T3, MC1R (Homo sapiens, UniProt Q01726); assay: Commercially available MC1R membrane binding assay; details: greater than highest concentration tested
T3 construct: purchased
Experimental: as §2

[8] = system: calcium channel L-type (phenylalkylamine); assay: SafetyScreen panel: calcium channel L-type; format: binding; details: 10 μM
Experimental: as §1

T2 sequence (Q01718 whole entry): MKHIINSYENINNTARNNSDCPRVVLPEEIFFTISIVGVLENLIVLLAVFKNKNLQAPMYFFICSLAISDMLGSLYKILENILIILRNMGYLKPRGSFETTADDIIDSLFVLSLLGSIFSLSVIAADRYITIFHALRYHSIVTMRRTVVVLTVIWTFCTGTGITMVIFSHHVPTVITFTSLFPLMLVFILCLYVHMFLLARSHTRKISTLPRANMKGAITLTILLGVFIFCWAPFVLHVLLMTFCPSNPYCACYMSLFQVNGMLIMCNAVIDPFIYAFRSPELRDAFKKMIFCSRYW
T2 sequence (Q8TCY5 whole entry partner): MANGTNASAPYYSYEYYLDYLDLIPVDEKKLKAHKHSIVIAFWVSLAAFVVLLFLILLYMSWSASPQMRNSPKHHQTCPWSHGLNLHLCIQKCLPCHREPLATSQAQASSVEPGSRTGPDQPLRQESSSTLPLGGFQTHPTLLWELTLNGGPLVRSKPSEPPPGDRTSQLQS
T3 sequence (Q01726 whole entry): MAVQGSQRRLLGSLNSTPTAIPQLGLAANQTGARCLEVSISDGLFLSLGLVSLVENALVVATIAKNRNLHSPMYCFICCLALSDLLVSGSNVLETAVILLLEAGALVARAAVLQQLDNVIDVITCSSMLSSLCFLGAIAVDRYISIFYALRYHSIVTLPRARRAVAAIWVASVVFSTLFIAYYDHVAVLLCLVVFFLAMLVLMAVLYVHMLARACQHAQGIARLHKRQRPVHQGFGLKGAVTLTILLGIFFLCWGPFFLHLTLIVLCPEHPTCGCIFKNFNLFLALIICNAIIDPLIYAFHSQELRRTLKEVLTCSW
T1 sequence (P33032 whole entry): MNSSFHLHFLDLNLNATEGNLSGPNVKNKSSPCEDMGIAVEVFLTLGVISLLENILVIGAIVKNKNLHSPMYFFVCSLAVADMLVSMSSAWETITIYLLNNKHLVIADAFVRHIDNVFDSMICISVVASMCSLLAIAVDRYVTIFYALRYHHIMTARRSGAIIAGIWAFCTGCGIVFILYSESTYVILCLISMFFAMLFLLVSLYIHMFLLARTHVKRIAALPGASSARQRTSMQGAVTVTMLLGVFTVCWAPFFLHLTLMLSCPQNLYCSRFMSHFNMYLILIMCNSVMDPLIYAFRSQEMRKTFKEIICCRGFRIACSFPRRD

With `CCOc1ccccc1-c1ccc(N2CCN(C(=O)C3(C(F)(F)F)CCC3)C[C@H]2CC)c(C(=O)N[C@@H]2CN3CCC2CC3)n1` [Compound 1, 6-(2-ethoxyphenyl)-3-((R)-2-ethyl-4-(1-(trifluoromethyl)cyclobutane-1-carbonyl)piperazin-1-yl)-N—((S)-quinuclidin-3-yl)picolinamide] the “basal and ACTH-stimulated cortisol secretion” value ([1]; 4 h post-dose throughout the MAD study) was “suppressed basal and ACTH-stimulated cortisol secretion”, the basal unstimulated cortisol ([1]; at 24 hours (before the next dose)) was “suppression of basal unstimulated cortisol was not observed” and the “basal and ACTH-stimulated cortisol levels” value ([1]; high dose ACTH-stimulation test, after 10 days of dosing) was “suppressed basal and ACTH-stimulated cortisol levels”. The “activity across the panel” value [2] was “little activity across the panel”, the IC50 [3] was > 1000 nM and the inhibition/activity [4] was > 70%. The ACTH-stimulated corticosterone ([5]; 24 and 48 hours after single oral 3 or 30 mg/kg) was “returned to normal, vehicle levels”, the “suppression of ACTH-stimulated corticosterone” value (“suppression” for short) ([5]; 1 hour post-oral administration, 3 mg/kg) was 44% and the “suppression” value ([5]; 1 hour post-oral administration, 30 mg/kg) was 88%. For the same compound, the “suppression” value ([5]; 4 hours post-oral administration, 3 mg/kg) was 36%, the “suppression” value ([5]; 4 hours post-oral administration, 30 mg/kg) was 84% and the Ki ([6]; hMC2R membranes, [125I]-Tyr23-ACTH(1-39) probe, read-out: equilibrium inhibitory constant (Ki) in a binding assay) was < 10 nM. The “selectivity for MC2R versus the other human MCRs” value ([6]; over MC1R, MC3R, MC4R, MCSR) was > 2900 fold, the IC50 [7] was > 10 µM and the inhibition/activity [8] was > 70%.
